# Active and inactive are the calls of the source.
# Tests used:
# [1] = target: Cytochrome P450 2C9 (Homo sapiens, UniProt P11712); conditions: Potency
# [2] = target: Cytochrome P450 2C19 (Homo sapiens, UniProt P33261); assay: qHTS Assay for Inhibitors and Substrates of Cytochrome P450 2C19. [Related pubchem assays: 410 ]; assay type: ADME; conditions: read-out: Potency
# [3] = target: Cytochrome P450 2D6 (Homo sapiens, UniProt P10635); assay: qHTS Assay for Inhibitors and Substrates of Cytochrome P450 2D6. [Related pubchem assays: 410 ]; assay type: ADME; conditions: read-out: Potency
# [4] = Luminescence Cell-Based Dose Confirmation HTS to Identify Inhibitors of Polyadenylation.; assay type: functional
# [5] = Plasmodium falciparum Dd2 Sybr green parasite growth Measured in Cell-Based and Microorganism Combination System Using Plate Reader - 2153-01_Inhibitor_Dose_DryPowder_Activity_Set3.; assay type: functional
# [6] = Dd2 parasite growth inhibition in erythrocytes – SYBR Green, dry powder samples, set 9, dose response (AID 1159568); assay type: functional, cell-based
# [7] = growth inhibition of yeast DHODH-expressing 3D7 parasites – SYBR Green, dry powder samples, dose response (AID 1159570); assay type: functional, cell-based;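 further: parasite growth measured after 72 hours of compound exposure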
# [8] = growth inhibition of PfATP4-mutant resistant parasites – NITD609-resistant line, SYBR Green, dry powder, dose response (AID 1159571); assay type: functional, cell-based;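 further: parasites synchronized at ring stage by sorbitol before testing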
# [9] = Dd2 malaria parasite growth inhibition potency – SYBR Green, dry powder samples, dose response (AID 1159566); assay type: functional, cell-based;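 further: potency for growth inhibition with lower SYBR green DNA signal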
# [10] = P. falciparum Dd2 growth inhibitors, dose response, SYBR Green, cherry-picked samples (AID 1159567); assay type: functional, cell-based
# [11] = toxicity to human HepG2 hepatoma cells – cell-based, plate reader, dry powder samples, cytotoxicity control, dose response (AID 1159569); assay type: functional;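 further: inhibitor potency with signal falling toward the positive control level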
# [12] = cytotoxicity toward Colo320 cells – cell-based, CellTiter-Glo luminescence, IC50, dose response (AID 1117334); assay type: functional; conditions: COLO 320
# [13] = cytotoxicity toward HCT116 cells – cell-based, CellTiter-Glo luminescence, IC50, dose response (AID 1117332); assay type: functional; conditions: HCT-116
# [14] = Reduced DLD-1 viability, concentration-response, CellTiter-Glo luminescence (AID 1117352); assay type: functional
# [15] = SNU-C1 cell viability reduction, dose response, CellTiter-Glo luminescence (AID 1117323); assay type: functional, cell-based
# [16] = HEK-293T viability loss after treatment – luminescence, T-cell screen hits, cytotoxicity control for TCR NF-kB inhibitor project, dose response (AID 489026); assay type: functional, cell-based;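 further: cells exposed to compound about 14 hours before the viability readout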
# [17] = cytotoxicity toward HT-29 cells – cell-based, CellTiter-Glo luminescence, IC50, dose response (AID 1117330); assay type: functional
# [18] = RKO cell viability reduction, dose response, CellTiter-Glo luminescence (AID 1117322); assay type: functional
# [19] = CellTiter-Glo luminescence survival assay, SW480 colon tumor line, concentration-response curve, half-maximal inhibitory concentration (AID 1117338); assay type: functional
# Cytochrome P450 2C19, sequence (P33261 whole entry): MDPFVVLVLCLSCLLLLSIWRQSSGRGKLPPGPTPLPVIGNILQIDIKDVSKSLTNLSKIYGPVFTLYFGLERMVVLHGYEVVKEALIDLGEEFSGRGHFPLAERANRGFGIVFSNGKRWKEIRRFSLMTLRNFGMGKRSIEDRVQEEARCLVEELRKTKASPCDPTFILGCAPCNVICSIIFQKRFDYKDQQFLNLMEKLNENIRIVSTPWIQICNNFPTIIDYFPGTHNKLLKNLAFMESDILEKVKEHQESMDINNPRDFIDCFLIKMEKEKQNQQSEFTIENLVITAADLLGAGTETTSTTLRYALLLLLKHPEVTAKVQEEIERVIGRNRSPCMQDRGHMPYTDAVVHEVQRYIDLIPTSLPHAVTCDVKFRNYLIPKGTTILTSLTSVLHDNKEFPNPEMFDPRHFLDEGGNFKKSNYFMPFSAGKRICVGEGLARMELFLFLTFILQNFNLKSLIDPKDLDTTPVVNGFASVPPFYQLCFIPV
# Cytochrome P450 2C9, sequence (P11712 whole entry): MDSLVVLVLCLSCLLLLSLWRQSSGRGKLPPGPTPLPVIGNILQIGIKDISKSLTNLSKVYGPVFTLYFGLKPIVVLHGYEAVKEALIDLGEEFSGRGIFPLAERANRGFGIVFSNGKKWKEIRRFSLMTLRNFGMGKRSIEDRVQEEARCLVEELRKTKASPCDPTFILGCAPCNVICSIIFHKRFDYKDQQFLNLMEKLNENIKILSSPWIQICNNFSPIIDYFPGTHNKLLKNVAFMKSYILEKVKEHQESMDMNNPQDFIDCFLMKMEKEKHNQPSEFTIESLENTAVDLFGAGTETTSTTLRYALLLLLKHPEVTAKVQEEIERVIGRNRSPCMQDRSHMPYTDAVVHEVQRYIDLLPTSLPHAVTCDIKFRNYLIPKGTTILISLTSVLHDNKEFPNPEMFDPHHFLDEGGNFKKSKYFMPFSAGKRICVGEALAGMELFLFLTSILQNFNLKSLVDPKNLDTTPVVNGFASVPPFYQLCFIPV
# Cytochrome P450 2D6, sequence (P10635 whole entry): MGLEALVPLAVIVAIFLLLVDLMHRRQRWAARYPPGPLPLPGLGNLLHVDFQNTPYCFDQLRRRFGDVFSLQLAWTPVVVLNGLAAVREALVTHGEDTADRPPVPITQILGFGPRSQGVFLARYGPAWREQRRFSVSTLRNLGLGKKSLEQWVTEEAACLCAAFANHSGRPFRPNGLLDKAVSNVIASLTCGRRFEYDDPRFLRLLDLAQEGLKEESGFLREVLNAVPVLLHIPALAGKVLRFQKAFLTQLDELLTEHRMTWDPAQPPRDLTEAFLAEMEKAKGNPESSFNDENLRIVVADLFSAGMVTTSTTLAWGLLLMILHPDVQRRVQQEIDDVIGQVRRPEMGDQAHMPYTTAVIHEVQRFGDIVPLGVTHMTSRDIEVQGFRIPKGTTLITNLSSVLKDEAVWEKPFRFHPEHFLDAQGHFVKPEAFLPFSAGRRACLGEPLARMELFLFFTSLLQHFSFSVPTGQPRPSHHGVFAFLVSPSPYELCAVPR
smiles,measurement,setting,value
COC(=O)NC(c1ccco1)C(C(C)=O)C(=O)OC (centres undefined),AC50,[1],1000 nM (inconclusive)
same,AC50,[2],6310 nM (inconclusive)
same,AC50,[3],3160 nM (inconclusive)
CCCCCCCCCCCC(=O)N/N=C/c1ccco1,EC50,[4],> 120000 nM (not active)
CCCNC(=O)Nc1ccc2c(c1)OC[C@@H](C)N(Cc1ccccc1)C[C@@H](C)[C@H](OC)CN(C)C2=O,AC50,[5],826 nM (active)
same,AC50,[6],307 nM (active)
same,AC50,[7],3250 nM (active)
same,AC50,[8],828 nM (active)
same,AC50,[9],154 nM (active)
same,AC50,[10],1430 nM (active)
CCCNC(=O)N1[C@H](C#N)[C@H](c2ccc(-c3cccnc3)cc2)[C@H]1CO,AC50,[11],> 100000 nM (inactive)
same,AC50,[5],927 nM (active)
same,AC50,[7],> 39000 nM (inactive)
same,AC50,[8],1160 nM (active)
same,AC50,[9],822 nM (active)
same,AC50,[10],1490 nM (active)
Nc1ncn([C@@H]2O[C@H](CO)[C@@H](O)[C@H]2O)c(=O)n1 [AZACITIDINE],IC50,[12],12300 nM (inactive)
same,IC50,[13],3040 nM (active)
same,IC50,[14],2550 nM (active)
same,IC50,[15],1800 nM (active)
same,IC50,[16],> 80000 nM (inactive)
same,IC50,[17],12500 nM (inactive)
same,IC50,[18],7400 nM (inactive)
same,IC50,[19],> 6670 nM (inactive)

# Source: ChEMBL document CHEMBL1201862, “PubChem BioAssay data set” (2004)
